Assay results as given in ChEMBL document CHEMBL3097998, “Oxidative cleavage of DNA by pentamethine carbocyanine dyes irradiated with long-wavelength visible light” (Bioorg Med Chem Lett, 2014).
Activity calls are given as the source filed them. No cut-off for these calls is given here.

Columns and labels:
[1] = test system: Escherichia coli; experiment: Induction of Escherichia coli pUC19 DNA photocleavage assessed as conversion of supercoiled DNA to linear and nicked form of DNA at 10 uM treated for 60 mins followed by irradiation at 700 nm for 60 mins by agarose gel electrophoresis (reference value: 3%)
[2] = test system: Escherichia coli; experiment: Induction of Escherichia coli pUC19 DNA photocleavage at 10 uM treated for 60 mins followed by irradiation at 575 nm for 60 mins by agarose gel electrophoresis in presence of sodium benzoate
[3] = test system: Escherichia coli; experiment: Induction of Escherichia coli pUC19 DNA photocleavage assessed as conversion of supercoiled DNA to linear and nicked form of DNA at 10 uM treated for 60 mins followed by irradiation at 623 nm for 60 mins by agarose gel electrophoresis (reference value: 10%)
[4] = test system: DNA; experiment: Binding affinity to calf thymus DNA at 10 uM after 60 mins by UV-visible absorption spectra analysis; type: nucleic-acid assay; conditions: Bos taurus
[5] = test system: Escherichia coli; experiment: Induction of Escherichia coli pUC19 DNA cleavage assessed as conversion of supercoiled DNA to linear and nicked form of DNA at 10 uM after 60 mins by agarose gel electrophoresis
[6] = test system: Escherichia coli; experiment: Induction of Escherichia coli pUC19 DNA photocleavage assessed as conversion of supercoiled DNA to linear and nicked form of DNA at 10 uM treated for 60 mins followed by irradiation at 588 nm for 60 mins by agarose gel electrophoresis (reference value: 15%)
[7] = test system: Escherichia coli; experiment: Induction of Escherichia coli pUC19 DNA photocleavage assessed as conversion of supercoiled DNA to linear and nicked form of DNA after 60 mins followed by irradiation at 575 nm for 60 mins by agarose gel electrophoresis
[8] = test system: Escherichia coli; experiment: Induction of Escherichia coli pUC19 DNA photocleavage assessed as conversion of supercoiled DNA to linear and nicked form of DNA at 10 uM treated for 60 mins followed by irradiation at 575 nm for 60 mins by agarose gel electrophoresis (reference value: 6 +/- 2%)
[9] = test system: DNA; experiment: Binding affinity to calf thymus DNA at 10 uM incubated for 60 mins under dark condition by fluorescence emission spectra analysis; type: nucleic-acid assay; conditions: Bos taurus
[10] = test system: Escherichia coli; experiment: Induction of Escherichia coli pUC19 DNA photocleavage at 10 uM treated for 60 mins followed by irradiation at 575 nm for 60 mins by agarose gel electrophoresis in presence of sodium azide
[11] = test system: DNA; experiment: Binding affinity to calf thymus DNA at 10 uM using sequential DNA addition followed by 15 mins incubation under dark condition by UV-visible spectroscopy; type: nucleic-acid assay; conditions: Bos taurus

Structure (SMILES): CN1/C(=C/C=C(Cl)/C=C/C2=[N+](C)c3ccc4ccccc4c3C2(C)C)C(C)(C)c2c1ccc1ccccc21
- Activity [1]: 33%
- Activity [2]: inactive
- Activity [3]: 42%
- Activity [4]: Active
- Activity [5]: 2%
- Activity [6]: 46%
- Activity [7]: Dose-dependent effect
- Activity [8]: 83%
- Activity [9]: Active
- Activity [10]: inactive
- Activity [11]: Active

Structure (SMILES): CC1(C)C(/C=C/C(Cl)=C/C=C2/N(CCC[N+](C)(C)C)c3ccc4ccccc4c3C2(C)C)=[N+](CCC[N+](C)(C)C)c2ccc3ccccc3c21
- Activity [1]: 67%
- Activity [2]: inactive
- Activity [3]: 48%
- Activity [4]: Active
- Activity [5]: 5%
- Activity [6]: 55%
- Activity [7]: Dose-dependent effect
- Activity [8]: 91%
- Activity [9]: Active
- Activity [10]: inactive
- Activity [11]: Active

Structure (SMILES): CC1(C)C(/C=C/C(Br)=C/C=C2/N(CCC[N+](C)(C)C)c3ccc4ccccc4c3C2(C)C)=[N+](CCC[N+](C)(C)C)c2ccc3ccccc3c21
- Activity [1]: 59%
- Activity [2]: inactive
- Activity [3]: 56%
- Activity [4]: Active
- Activity [5]: 7%
- Activity [6]: 47%
- Activity [7]: Dose-dependent effect
- Activity [8]: 78%
- Activity [9]: Active
- Activity [10]: inactive
- Activity [11]: Active

Structure (SMILES): CC1(C)C(/C=C/C=C/C=C2/N(CCC[N+](C)(C)C)c3ccc4ccccc4c3C2(C)C)=[N+](CCC[N+](C)(C)C)c2ccc3ccccc3c21
- Activity [1]: 34%
- Activity [2]: inactive
- Activity [3]: 41%
- Activity [4]: Active
- Activity [5]: 1%
- Activity [6]: 20%
- Activity [8]: 47%
- Activity [9]: Active
- Activity [10]: inactive
- Activity [11]: Active

Structure (SMILES): CC1(C)C(/C=C/C(Cl)=C/C=C2/N(CCCc3ccccc3)c3ccc4ccccc4c3C2(C)C)=[N+](CCCc2ccccc2)c2ccc3ccccc3c21
- Activity [1]: 2%
- Activity [3]: 8%
- Activity [5]: 4%
- Activity [6]: 13%
- Activity [8]: 13%
- Activity [9]: Active

Structure (SMILES): CN1/C(=C/C=C(Br)/C=C/C2=[N+](C)c3ccc4ccccc4c3C2(C)C)C(C)(C)c2c1ccc1ccccc21
- Activity [1]: 49%
- Activity [2]: inactive
- Activity [3]: 46%
- Activity [4]: Active
- Activity [5]: 3%
- Activity [6]: 55%
- Activity [7]: Dose-dependent effect
- Activity [8]: 86%
- Activity [9]: Active
- Activity [10]: inactive
- Activity [11]: Active

Structure (SMILES): CN1/C(=C/C=C/C=C/C2=[N+](C)c3ccc4ccccc4c3C2(C)C)C(C)(C)c2c1ccc1ccccc21
- Activity [1]: 18%
- Activity [2]: inactive
- Activity [3]: 29%
- Activity [4]: Active
- Activity [5]: 2%
- Activity [6]: 25%
- Activity [8]: 59%
- Activity [9]: Active
- Activity [10]: inactive
- Activity [11]: Active
